Measured values as given in patent US20250152585A1, “PHARMACEUTICAL COMPOUND” (Duke Street Bio Limited, priority 2022, published 2025).
Read-outs that look alike come from different tables or passages of the source.

Experiments:
[1] = target: T1, full length N-terminally FLAG-tagged PARP1 (Homo sapiens, UniProt P09874); test: PARP1 biochemical DELFIA assay (auto-PARylation); parameters: recombinant full length human N-terminally FLAG-tagged PARP1
[2] = target: T2, N-terminally FLAG-tagged PARP2 (amino acids 1-583) (Homo sapiens, UniProt Q9UGN5); test: PARP2 probe displacement HTRF assay; type: binding; details: binned Kd
T2 construct: N-terminally FLAG-tagged PARP2 (amino acids 1-583)
T2 sequence (Q9UGN5 whole entry, the tested form may be a part): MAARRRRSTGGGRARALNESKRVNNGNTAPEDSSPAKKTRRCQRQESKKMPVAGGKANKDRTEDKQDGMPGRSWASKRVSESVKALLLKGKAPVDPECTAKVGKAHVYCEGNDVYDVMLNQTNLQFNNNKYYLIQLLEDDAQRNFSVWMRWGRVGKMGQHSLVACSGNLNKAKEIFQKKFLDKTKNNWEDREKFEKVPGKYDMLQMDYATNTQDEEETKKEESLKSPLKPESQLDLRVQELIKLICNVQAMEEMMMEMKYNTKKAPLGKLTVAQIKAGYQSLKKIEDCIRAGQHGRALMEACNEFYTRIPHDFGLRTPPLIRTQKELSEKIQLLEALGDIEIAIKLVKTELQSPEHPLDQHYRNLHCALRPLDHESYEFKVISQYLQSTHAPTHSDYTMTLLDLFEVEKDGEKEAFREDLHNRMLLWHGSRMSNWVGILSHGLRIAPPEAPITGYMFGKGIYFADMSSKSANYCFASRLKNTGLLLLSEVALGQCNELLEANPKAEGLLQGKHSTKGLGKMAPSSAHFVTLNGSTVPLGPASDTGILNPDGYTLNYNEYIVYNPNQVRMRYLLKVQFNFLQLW
Procedure: Data analysis was performed identical as for PARP1.

[3] = target: T3, PARP2 (Homo sapiens, UniProt Q9UGN5); test: NanoBRET cellular target occupancy assay, PARP2; type: cell-based; details: HEK293 cells transiently transfected with PARP2-NanoLuc fusion; tracer 2 nM; 2 hours at 37° C.; Kd by Cheng-Prussoff
T3 construct: host or cells: HEK293
T3 sequence (Q9UGN5 whole entry, the tested form may be a part): as above
From the text: NanoBRET Cellular Target Occupancy Assay

[4] = target: T1, full length N-terminally FLAG-tagged PARP1; test: PARP1 probe displacement HTRF assay; details: for Selectivity: PARP1 over PARP2, ratio Kd (PARP2)/Kd (PARP1); for Kd: binned Kd
[5] = target: T4, PARP1 (Homo sapiens, UniProt P09874); test: NanoBRET cellular target occupancy assay, PARP1; type: cell-based; details: for Kd: HEK293 cells transiently transfected with PARP1-NanoLuc fusion, tracer 11 nM, 2 hours at 37° C., Kd by Cheng-Prussoff; for Selectivity: NanoBRET, PARP1 over PARP2, Kd (PARP2)/Kd (PARP1)
T4 construct: host or cells: HEK293
T4 sequence (P09874 whole entry, the tested form may be a part): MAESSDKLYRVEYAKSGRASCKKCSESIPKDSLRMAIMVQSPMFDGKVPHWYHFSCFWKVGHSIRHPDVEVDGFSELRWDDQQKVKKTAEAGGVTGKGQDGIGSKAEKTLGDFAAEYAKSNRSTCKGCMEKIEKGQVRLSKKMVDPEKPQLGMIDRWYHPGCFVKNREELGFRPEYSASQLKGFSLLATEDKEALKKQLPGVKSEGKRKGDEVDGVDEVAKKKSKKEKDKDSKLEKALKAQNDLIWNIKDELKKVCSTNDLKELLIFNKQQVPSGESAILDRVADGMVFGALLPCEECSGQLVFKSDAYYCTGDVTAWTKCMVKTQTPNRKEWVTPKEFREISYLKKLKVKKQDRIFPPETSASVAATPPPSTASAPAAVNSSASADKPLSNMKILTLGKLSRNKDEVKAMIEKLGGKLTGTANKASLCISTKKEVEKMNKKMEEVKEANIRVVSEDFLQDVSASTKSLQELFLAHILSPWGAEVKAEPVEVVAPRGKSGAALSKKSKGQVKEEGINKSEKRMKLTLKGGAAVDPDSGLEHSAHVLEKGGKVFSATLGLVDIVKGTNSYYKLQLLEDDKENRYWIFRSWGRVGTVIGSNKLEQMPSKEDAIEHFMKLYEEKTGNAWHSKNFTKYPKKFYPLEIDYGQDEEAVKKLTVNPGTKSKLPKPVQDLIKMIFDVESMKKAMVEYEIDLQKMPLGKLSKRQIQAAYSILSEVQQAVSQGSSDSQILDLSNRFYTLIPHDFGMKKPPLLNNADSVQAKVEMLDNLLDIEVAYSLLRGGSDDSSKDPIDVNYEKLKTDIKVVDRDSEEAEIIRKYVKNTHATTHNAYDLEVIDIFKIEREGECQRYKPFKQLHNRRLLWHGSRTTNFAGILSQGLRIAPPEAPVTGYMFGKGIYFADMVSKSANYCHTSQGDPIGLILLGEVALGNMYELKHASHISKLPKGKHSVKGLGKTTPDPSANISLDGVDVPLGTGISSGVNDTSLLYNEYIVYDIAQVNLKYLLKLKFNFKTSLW

[6] = binned IC50, PARP1 biochemical DELFIA assay
[7] = read-out: PARP1 HTRF, PARP1 probe displacement HTRF
[8] = binned IC50, biochemical auto-PARylation assay
[9] = read-out: PARP1 HTRF, probe displacement HTRF

T1 sequence (P09874 whole entry, the tested form may be a part): as above

Structure (SMILES)	IC50 [1, 6] [µM]	Kd ([2]; PARP2 probe displacement HTRF) [µM]	Kd [3] [µM]	Kd [4, 7] [µM]	Kd [5] [µM]	IC50 [1, 8] [µM]	Kd ([2]; probe displacement HTRF) [µM]	Kd [4, 9] [µM]	Kd ([4]; PARP1 HTRF, probe displacement HTRF) [µM]	Selectivity ([4]; probe displacement HTRF)	Selectivity [5]
CNC(=O)c1ccc(N2CCC(N3CCC(c4cc5ccc(F)cc5c(=O)[nH]4)C3)CC2)c(F)n1 (single isomer, unassigned) [Compound 174a]	< 0.01	0.1 to 1	1 to 10	< 0.01	< 0.01	–	–	–	–	+++ (+++ indicate a value of at least 100)	+++ (+++ indicate a value of at least 100)
CNC(=O)c1ccc(N2CCC(N3CCC(c4cc5cccc(F)c5c(=O)[nH]4)C3)CC2)c(Cl)n1 (single isomer, unassigned) [Compound 183b]	< 0.01	0.1 to 1	1 to 10	< 0.01	< 0.01	–	–	–	–	+++ (+++ indicate a value of at least 100)	+++ (+++ indicate a value of at least 100)
CNC(=O)c1ccc(N2CCC(N3CCC(c4cc5ccc(F)cc5c(=O)[nH]4)C3)CC2)c(Cl)n1 (single isomer, unassigned) [Compound 223b]	–	–	0.1 to 1	–	< 0.01	< 0.01	0.1 to 1	< 0.01	–	+++ (+++ indicate a value of at least 100)	+++ (+++ indicate a value of at least 100)
CCc1ccc(C2CCN(C3CCN(c4ccc(C(=O)NC)nc4Cl)CC3)C2)[nH]c1=O (single isomer, unassigned) [Compound 239b]	–	–	1 to 10	–	< 0.01	< 0.01	1 to 10	< 0.01	–	+++ (+++ indicate a value of at least 100)	+++ (+++ indicate a value of at least 100)
CNC(=O)c1ccc(N2CCC(N3CCC(c4ccc(CC5CC5)c(=O)[nH]4)C3)CC2)c(F)n1 (single isomer, unassigned) [Compound 313b]	–	–	1 to 10	–	< 0.01	< 0.01	1 to 10	< 0.01	–	+++ (+++ indicate a value of at least 100)	+++ (+++ indicate a value of at least 100)
N#Cc1ccc(N2CCC(N3CCC(c4cc5cccc(F)c5c(=O)[nH]4)C3)CC2)cc1 (single isomer, unassigned) [Compound 314b]	–	–	0.1 to 1	–	< 0.01	< 0.01	0.1 to 1	< 0.01	–	+++ (+++ indicate a value of at least 100)	+++ (+++ indicate a value of at least 100)
N#Cc1ccc(N2CCC(N3CCC(c4cc5cccc(F)c5c(=O)[nH]4)C3)CC2)cn1 (single isomer, unassigned) [Compound 316a]	–	–	0.1 to 1	–	< 0.01	< 0.01	0.1 to 1	< 0.01	–	+++ (+++ indicate a value of at least 100)	+++ (+++ indicate a value of at least 100)
CCc1ccc(C2CCN(C3CCN(c4ccc(C(=O)NCCF)nc4F)CC3)C2)[nH]c1=O (single isomer, unassigned) [Compound 322b]	–	–	0.1 to 1	–	< 0.01	< 0.01	0.1 to 1	< 0.01	–	+++ (+++ indicate a value of at least 100)	+++ (+++ indicate a value of at least 100)
CNC(=O)c1ccc(N2CCC(N3CCC(c4cc5c(F)ccc(F)c5c(=O)[nH]4)C3)CC2)c(F)n1 (single isomer, unassigned) [Compound 323a]	–	–	> 10	–	< 0.01	< 0.01	> 10	< 0.01	–	+++ (+++ indicate a value of at least 100)	+++ (+++ indicate a value of at least 100)
CNC(=O)c1ccc(N2CCC(N3CCC(c4cc5c(F)ccc(F)c5c(=O)[nH]4)C3)CC2)c(F)n1 (single isomer, unassigned) [Compound 323b]	–	–	0.1 to 1	–	< 0.01	< 0.01	0.01 to 0.1	< 0.01	–	+++ (+++ indicate a value of at least 100)	+++ (+++ indicate a value of at least 100)
CNC(=O)c1ccc(N2CCC(N3CCC(c4cc5c(c(=O)[nH]4)CCCC5)C3)CC2)c(F)n1 (single isomer, unassigned) [Compound 337a, 6-fluoro-N-methyl-5-(4-(3-(1-oxo-1,2,5,6,7,8-hexahydroisoquinolin-3-yl)pyrrolidin-1-yl)piperidin-1-yl)picolinamide]	–	–	1 to 10	–	< 0.01	< 0.01	0.1 to 1	–	< 0.01	+++ (+++ indicate a value of at least 100)	+++ (+++ indicate a value of at least 100)
CNC(=O)c1ccc(N2CCC(N3CCC(c4cc5ncc(Cl)cc5c(=O)[nH]4)C3)CC2)c(F)n1 (single isomer, unassigned) [Compound 344b]	–	–	> 10	–	< 0.01	< 0.01	1 to 10	< 0.01	–	+++ (+++ indicate a value of at least 100)	+++ (+++ indicate a value of at least 100)
CCc1ccc(C2CCN(C3CCN(c4ccc(C(=O)NC5CC5)nc4F)CC3)C2)[nH]c1=O (single isomer, unassigned) [Compound 353a]	–	–	0.1 to 1	–	< 0.01	< 0.01	0.1 to 1	< 0.01	–	+++ (+++ indicate a value of at least 100)	+++ (+++ indicate a value of at least 100)
CCc1ccc(C2CCN(C3CCN(c4ccc(C(=O)NCC(F)F)nc4)CC3)C2)[nH]c1=O (single isomer, unassigned) [Compound 354b]	–	–	0.1 to 1	–	< 0.01	< 0.01	0.1 to 1	< 0.01	–	+++ (+++ indicate a value of at least 100)	+++ (+++ indicate a value of at least 100)

More lines, main results first:

IC50 [1, 6] [µM]	Kd ([2]; PARP2 probe displacement HTRF) [µM]	Kd [3] [µM]	Kd [4, 7] [µM]	Kd [5] [µM]	IC50 [1, 8] [µM]	Kd ([2]; probe displacement HTRF) [µM]	Kd [4, 9] [µM]	Kd ([4]; PARP1 HTRF, probe displacement HTRF) [µM]	Structure (SMILES)	Selectivity ([4]; probe displacement HTRF)	Selectivity [5]
< 0.01	0.01 to 0.1	0.1 to 1	< 0.01	< 0.01	–	–	–	–	CNC(=O)c1ccc(N2CCC(N3CCC(c4cc5ccc(F)cc5c(=O)[nH]4)C3)CC2)cn1 (single isomer, unassigned) [Compound 154b, 5-(4-(3-(7-fluoro-1-oxo-1,2-dihydroisoquinolin-3-yl)pyrrolidin-1-yl)piperidin-1-yl)-N-methylpicolinamide]	+ (+ indicates a value of 10 to less than 50)	+++ (+++ indicate a value of at least 100)
< 0.01	0.01 to 0.1	0.1 to 1	< 0.01	< 0.01	–	–	–	–	CNC(=O)c1ccc(N2CCC(N3CCC(c4cc5ccc(F)cc5c(=O)[nH]4)C3)CC2)c(F)n1 (single isomer, unassigned) [Compound 174b]	+++ (+++ indicate a value of at least 100)	+++ (+++ indicate a value of at least 100)
< 0.01	0.01 to 0.1	0.1 to 1	< 0.01	< 0.01	–	–	–	–	CNC(=O)c1ccc(N2CCC(N3CCC(c4cc5c(F)ccc(F)c5c(=O)[nH]4)C3)CC2)cn1 (single isomer, unassigned) [Compound 180b]	++ (++ indicates a value of 50 to less than 100)	+++ (+++ indicate a value of at least 100)
< 0.01	0.1 to 1	0.1 to 1	< 0.01	< 0.01	–	–	–	–	CNC(=O)c1ccc(N2CCC(N3CCC(c4cc5cccc(F)c5c(=O)[nH]4)C3)CC2)c(F)n1 (single isomer, unassigned) [Compound 184b, 6-fluoro-5-[4-[3-(8-fluoro-1-oxo-2H-isoquinolin-3-yl)pyrrolidin-1-yl]piperidin-1-yl]-N-methylpyridine-2-carboxamide]	+++ (+++ indicate a value of at least 100)	+++ (+++ indicate a value of at least 100)
< 0.01	0.1 to 1	0.1 to 1	< 0.01	< 0.01	–	–	–	–	CNC(=O)c1ccc(N2CCC(N3CCC(c4cc5ccc(F)cc5c(=O)[nH]4)C3)CC2)c(C)n1 (single isomer, unassigned) [Compound 196a]	+++ (+++ indicate a value of at least 100)	+++ (+++ indicate a value of at least 100)
< 0.01	0.1 to 1	0.1 to 1	< 0.01	< 0.01	–	–	–	–	CNC(=O)c1ccc(N2CCC(N3CCC(c4cc5ccc(F)cc5c(=O)[nH]4)C3)CC2)nn1 (single isomer, unassigned) [Compound 197a]	+++ (+++ indicate a value of at least 100)	+++ (+++ indicate a value of at least 100)
–	–	0.01 to 0.1	–	< 0.01	< 0.01	0.01 to 0.1	< 0.01	–	O=C(NC1CC1)c1ccc(N2CCC(N3CCC(c4cc5cccc(F)c5c(=O)[nH]4)C3)CC2)cn1 (single isomer, unassigned) [Compound 339a]	+ (+ indicates a value of 10 to less than 50)	+ (+ indicates a value of 10 to less than 50)
